Patent US5972598A, “Methods for preventing multidrug resistance in cancer cells” (priority 1995, dated 1999)
Entries after “also recorded” stand apart in the source; their conditions may differ. Read-outs that look alike come from different tables or passages of the source.

Legend:
MDR1 [1] = type: cell-based, human
Protocol: The times of drug exposure are indicated.
(§1) (Commercially-available kits (for example, from GIBCO/BRL, Gaithersburg, Md.) can be advantageously modified for making cDNA using random hexamers.) PCR is then performed using the following primers: […]
Next, it was tested whether drug-induced MDR1 expression was maintained after the cytotoxic treatment. […] At different time points, MDR1 expression in the surviving cells was analyzed by dye efflux and immunofluorescence labeling with UIC2 (FIG. 3c) or by cDNA-PCR (FIG. 4e).

P-glycoprotein = P-glycoprotein (Homo sapiens, UniProt P08183); experiment: Rh123 accumulation assay of P-glycoprotein activity in human PBL
Protocol: KG1 cell line was maintained in Iscove's modified Dulbecco medium with 20% fetal calf serum (FCS) and 2 mM L-glutamine, 100 units/ml penicillin and 100 μg/ml streptomycin (GIBCO Laboratories, Grand Island, N.Y.).
A functional assay was used to detect changes in P-glycoprotein activity in human PBL treated with different agents that induce lymphoid differentiation or activation, based on flow cytometric analysis of cellular accumulation of Rh123, which is a P-glycoprotein-transported fluorescent mitochondrial dye. In this assay, cells expressing little or no P-glycoprotein stain brightly with Rh123, whereas cells with higher levels of P-glycoprotein activity appear Rh123-dull. […] Since the best-known cellular effect of TPA is the stimulation of PKC, it was also tested whether DOG, a cell-permeable diacylglycerol and a physiological stimulant of PKC, would have an effect on Rh123 accumulation in PBL.

tumor [2] = details: cited from earlier work; for antitumor activity in vivo: literature
tumor [3] = details: nude mice; Meyer et al., 1989; cited from earlier work
MDR1 [4] = experiment: cDNA-PCR / flow cytometric analysis of MDR1 induction by PKC agonists; type: cell-based, human
Protocol: Neomycin sulfate (Calbiochem) was dissolved in sterile, deionized water.
P-glycoprotein expression on the cell surface was analyzed using a P-glycoprotein-specific mouse IgG2a monoclonal antibody (mAB) UIC2 (Mechetner and Roninson, 1992, Proc. Natl. Acad. Sci. USA 89:5824-5828). Mouse IgG2a isotype control antibody was obtained from Sigma. For staining of PBL with UIC2 mAB or isotype control, 10^6 cells were stained at 4° C. with 10 μg of the antibody for 30 minutes and, after two washes, stained for 30 minutes with 10 μg of FITC-conjugated goat anti-mouse IgG2a antibody (Fisher Scientific, Fairlawn, N.J.), diluted 1:2 with PBS plus 2% FCS. Cells were then washed twice with ice-cold PBS plus 2% FCS, stained with PI and kept on ice until analysis. Essentially the same protocol was used for staining of other cell types except that 2 μg of the secondary antibody were used per 10^6 cells. In some experiments, phycoerythrine (PE)-conjugated goat anti-mouse IgG2a was used as the secondary antibody; no PI was added in such cases. Flow cytometric analysis was conducted on a Coulter Epics 753 Flow Cytometer.
RNA was extracted from approximately 10^6 cells by a small-scale sodium dodecyl sulfate extraction procedure (Peppel and Baglioni, 1990, BioTechniques 9:711-713). In the alternative, RNA was isolated from cells using the TRIzol method (commercially available from GIBCO/BRL). cDNA synthesis and polymerase chain reaction (PCR) amplification of MDR1 and β2 -microglobulin cDNA sequences were carried out essentially as described (Noonan et al., 1990, Proc. Natl. Acad. Sci. USA 87:7160-7164; Noonan and Roninson, 1991, pp. 319-333 In Roninson (Ed.), Molecular and Cellular Biology of Multidrug Resistance in Tumor Cells, Plenum Press, New York). Briefly, cDNA was prepared using the method of Krug and Berger (1987, Meth. Enzymol. 152: 316-324), with the modification that random hexamers were substituted for oligo(dT) as primers for cDNA synthesis. (Commercially-available kits (for example, from GIBCO/BRL, Gaithersburg, Md.) can be advantageously modified for making cDNA using random hexamers.) PCR is then performed using the following primers: […]
(§2) (where β2 M represents β2 microglobulin). PCR was performed for β2 M experiments under a regime consisting of 1 cycle comprising denaturation at 94° C. for 3 minutes, primer annealing at 60° C. for 30 seconds, and primer extension at 72° C. for 1 minute, followed by 19 cycles comprising denaturation at 94° C. for 30 seconds, primer annealing at 60° C. for 30 seconds, and primer extension at 72° C. for 1 minute, followed by a final cycle comprising denaturation at 94° C. for 30 seconds, primer annealing at 60° C. for 30 seconds, and primer extension at 72° C. for 5 minutes. MDR1 cDNA sequences were amplified using the identical protocol as for β2 M, but extending the amplification from 19 cycles to 25 cycles. In addition, the cDNA-PCR amplification protocol contained the following modifications: (i) Taq DNA polymerase was added to the PCR mixtures after initial heating of the samples to 94° C. (ii) The yield of the β2 -microglobulin-specific band, obtained after 22-28 cycles of PCR, was used as the primary criterion for equalizing the starting amounts of the cDNA templates in different preparations, in order to account for differential RNA degradation in cells subjected to different types of treatment. […] PCR products were detected by autoradiography.

MDR1 [5] = experiment: Inhibition of cytotoxic drug (Ara-C) induced MDR1 expression by protein kinase inhibitors; type: cell-based, human
Protocol: FIG. 5. Effect of protein kinase inhibitors on MDR1 mRNA induction by cytotoxic drugs in H9 cells. […]
as §1, §2
Cells were plated in 6-well Falcon tissue culture plates at 3,300 cells per well, and incubated in the appropriate concentrations of drugs. Each of the protein kinase inhibitors to be tested were added at their appropriate final concentrations 45 minutes prior to MDR1 induction by the addition of Ara-C or TPA, with the exception of herbimycin A, which was added 12 hours prior to Ara-C or TPA, and tyrphostins A25 and B46, which were each added 16 hours prior to MDR1 induction by the addition of Ara-C or TPA. Cells were incubated overnight (TPA) or for 10 hours (Ara-C) at 37° C. under an atmosphere of 5% CO2 after the addition of the MDR1 inducing agents before harvesting for cDNA-PCR analysis.
In addition to these conditions, the analysis of certain drugs imposed added requirements. For experiments using calphostin C, cells were incubated under direct white light illumination. For experiments using D,L-threo-sphingosine, the cell culture medium was pre-treated with the appropriate concentration of the drug for one hour at 37° C. with continuous gentle mixing. After this pre-treatment, cells were resuspended in media supplemented with drug and incubated for 45 minutes as described above.
cDNA-PCR analyses on each culture treated with drugs, or in control cultures incubated in the absence or presence of Ara-C or TPA alone, were performed as described in Section 6.1.3 above.
To further evaluate the capacity of protein kinase inhibitors to suppress MDR1 induction by cytotoxic drugs and PKC agonists, H-9 human T cell leukemia cells were used in cDNA-PCR assays to examine induced MDR1 mRNA expression levels in the presence of such protein kinase inhibitors.

MRP = experiment: Inhibition of MRP expression in H-9 cells; type: cell-based, human; design: Inhibition of MRP Expression: key to the marks not given beside the values
Protocol: PCR was performed using the following primers: […]
(where β2 M represents β2 microglobulin). PCR was performed for β2 M experiments under a regime consisting of 1 cycle comprising denaturation at 94° C. for 3 minutes, primer annealing at 60° C. for 30 seconds, and primer extension at 72° C. for 1 minute, followed by 19 cycles comprising denaturation at 94° C. for 30 seconds, primer annealing at 60° C. for 30 seconds, and primer extension at 72° C. for 1 minute, followed by a final cycle comprising denaturation at 94° C. for 30 seconds, primer annealing at 60° C. for 30 seconds, and primer extension at 72° C. for 5 minutes.

PKC = details: literature; cited from earlier work

P-glycoprotein, sequence (P08183 whole entry): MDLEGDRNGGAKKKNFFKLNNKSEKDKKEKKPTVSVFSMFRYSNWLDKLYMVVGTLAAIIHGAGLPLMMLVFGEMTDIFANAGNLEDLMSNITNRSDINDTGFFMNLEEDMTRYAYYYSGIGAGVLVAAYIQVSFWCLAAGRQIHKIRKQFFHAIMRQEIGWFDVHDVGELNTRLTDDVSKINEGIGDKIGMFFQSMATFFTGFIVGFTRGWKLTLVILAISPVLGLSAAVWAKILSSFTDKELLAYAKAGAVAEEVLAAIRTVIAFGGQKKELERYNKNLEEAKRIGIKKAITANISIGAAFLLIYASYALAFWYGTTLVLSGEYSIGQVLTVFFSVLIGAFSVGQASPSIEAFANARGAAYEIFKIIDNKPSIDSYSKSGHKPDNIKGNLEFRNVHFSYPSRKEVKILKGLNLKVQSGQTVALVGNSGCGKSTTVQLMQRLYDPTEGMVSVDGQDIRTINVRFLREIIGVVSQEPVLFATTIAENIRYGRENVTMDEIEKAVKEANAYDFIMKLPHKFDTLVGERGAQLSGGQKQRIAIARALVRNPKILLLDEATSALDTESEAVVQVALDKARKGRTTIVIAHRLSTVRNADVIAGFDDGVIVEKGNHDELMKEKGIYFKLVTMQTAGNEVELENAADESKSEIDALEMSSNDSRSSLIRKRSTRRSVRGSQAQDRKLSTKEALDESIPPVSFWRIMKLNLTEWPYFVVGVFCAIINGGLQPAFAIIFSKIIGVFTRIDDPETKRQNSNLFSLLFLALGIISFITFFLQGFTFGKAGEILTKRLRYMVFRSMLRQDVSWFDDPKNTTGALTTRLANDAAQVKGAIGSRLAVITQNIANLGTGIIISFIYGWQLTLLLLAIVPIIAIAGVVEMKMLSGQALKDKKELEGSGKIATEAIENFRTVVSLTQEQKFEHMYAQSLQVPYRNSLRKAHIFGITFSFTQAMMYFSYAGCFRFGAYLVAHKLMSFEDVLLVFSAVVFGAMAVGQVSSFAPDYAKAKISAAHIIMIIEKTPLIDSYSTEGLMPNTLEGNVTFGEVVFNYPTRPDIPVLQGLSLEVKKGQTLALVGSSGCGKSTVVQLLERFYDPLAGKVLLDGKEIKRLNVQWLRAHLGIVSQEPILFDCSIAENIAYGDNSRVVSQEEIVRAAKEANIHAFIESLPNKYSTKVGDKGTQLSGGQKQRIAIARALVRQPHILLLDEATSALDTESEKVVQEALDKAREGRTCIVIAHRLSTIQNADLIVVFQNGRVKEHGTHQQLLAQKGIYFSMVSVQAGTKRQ

Compound: O=c1[nH]cc(F)c(=O)[nH]1 [5-fluorouracil]
- MDR1 induction, mRNA and protein levels (MDR1 [1]): MDR1 induction, both at the mRNA and at the protein levels, was observed

Compound: CNc1ccc2oc(C[C@H]3O[C@@]4(CC[C@H]3C)O[C@H]([C@H](C)C(=O)c3ccc[nH]3)[C@H](C)C[C@H]4C)nc2c1C(=O)O [A23187]
- effect on P-glycoprotein activity (Rh123 accumulation) (P-glycoprotein; human PBL): No apparent effects on P-glycoprotein

Compound: CCN(CC)CCN1C(=O)c2c(c3c4cccc(Cl)c4n([C@@H]4O[C@H](CO)[C@@H](OC)[C@H](O)[C@H]4O)c3c3[nH]c4c(Cl)cccc4c23)C1=O [BMY 27557, 8-N-(diethylaminoethyl) rebeccamycin]
- optimal total dose, i.p., nine equal injections per day at 12 mg/kg/injection (tumor [2]; i.p., Schurig et al., 1990): 108 mg/kg
- optimal total dose, i.p., single dose (tumor [2]; i.p., Schurig et al., 1990): 64 mg/kg
- antitumor activity in vivo (tumor [2]): antitumor activity in vivo

Compound: CO[C@@H]1[C@H](N(C)C(=O)c2ccccc2)C[C@H]2O[C@]1(C)n1c3ccccc3c3c4c(c5c6ccccc6n2c5c31)C(=O)NC4 [CGP 41 251]
- anti-tumor effect at fraction of MTD (tumor [3]): 1/10
- maximum tolerated dose (MTD) (tumor [3]): 250 mg/kg

Compound: CCCCCCCC(=O)OCC(CO)OC(=O)CCCCCCC (stereo not shown) [DOG, 1,2-dioctanoylglycerol]
- effect on P-glycoprotein activity (Rh123 accumulation) (P-glycoprotein; human PBL): decreased Rh123 accumulation
- induction of MDR1 mRNA and P-glycoprotein (MDR1 [4]; H9 cells): clear-cut induction of MDR1 mRNA and P-glycoprotein
- induction of MDR1 mRNA and P-glycoprotein (MDR1 [4]; K562 cells): clear-cut induction of MDR1 mRNA and P-glycoprotein

Compound: CN[C@@H]1C[C@H]2O[C@@](C)([C@@H]1OC)n1c3ccccc3c3c4c(c5c6ccccc6n2c5c31)C(=O)N[C@H]4O [UCN-01]
- antitumor activity in vivo (tumor [2]): antitumor activity in vivo

Compound: COc1c(CC(C)OC(=O)Oc2ccc(O)cc2)c2c3c(CC(C)OC(=O)c4ccccc4)c(OC)c(=O)c4c(O)cc(OC)c(c5c(OC)cc(O)c(c1=O)c52)c43 (stereo not shown) [calphostin C]
- prevention of MDR1 induction by chemotherapeutic drugs (MDR1 [5]; 1 μM with white light illumination): prevent MDR1 induction
- inhibition of Ara-C induced MDR1 expression (MDR1 [5]; H-9 cells, 0.1 μM with white light illumination): greatly reduced
- inhibition of Ara-C induced MDR1 expression (MDR1 [5]; H-9 cells, 1 μM with white light illumination): capable of inhibiting MDR1 expression

Compound: COc1ccc2c(c[n+](C)c3c4cc5c(cc4ccc23)OCO5)c1OC [chelerythrine]
- Inhibition of MRP Expression (MRP; 1-5 μM): ++++
- inhibition of MRP expression (MRP; 1-5 μM): strongly inhibited; also recorded: capable of inhibiting MRP expression
- prevention of MDR1 induction by chemotherapeutic drugs (MDR1 [5]; 5 μM): prevent MDR1 induction
- inhibition of Ara-C induced MDR1 expression (MDR1 [5]; H-9 cells, 1 μM and 5 μM): Progressive dose-dependent inhibition

Compound: N.N.[Cl][Pt][Cl] [cisplatin]
- MDR1 mRNA induction (MDR1 [1]; K562 cells): induce MDR1 mRNA expression
- MDR1 induction, mRNA and protein levels (MDR1 [1]; human leukemia and solid-tumor derived cell lines, subpopulation of treated cells): MDR1 induction, both at the mRNA and at the protein levels, was observed

Compound: O=CN/C=C/c1cc(O)ccc1O [erbstatin]
- inhibition of protein kinase C (PKC): protein kinase C inhibitors
- antitumor activity in vivo (tumor [2]): antitumor activity in vivo

Compound: COc1cc([C@@H]2c3cc4c(cc3[C@@H](O[C@@H]3O[C@@H]5CO[C@@H](C)O[C@H]5[C@H](O)[C@H]3O)[C@H]3COC(=O)[C@H]23)OCO4)cc(OC)c1O [etoposide]
- MDR1 induction, mRNA and protein levels (MDR1 [1]): MDR1 induction, both at the mRNA and at the protein levels, was observed

Compound: O=c1c(-c2ccc(O)cc2)coc2cc(O)cc(O)c12 [genistein]
- inhibition of Ara-C induced MDR1 expression (MDR1 [5]; 150 μM): only weakly inhibited Ara-C induced MDR1 expression
- inhibition of Ara-C induced MDR1 expression (MDR1 [5]; H9 cells, 25 μM Ara-C 10 h, 150 μM): +

Compound: COC1C=CC=C(C)C(=O)NC2=CC(=O)C=C(C2=O)C(OC)C(C)CC(OC)C(OC)C(C)C=C(C)C1OC(N)=O (stereo not shown) [herbimycin A]
- inhibition of Ara-C induced MDR1 expression (MDR1 [5]; 0.35-3 μM): little or no capacity to inhibit Ara-C induced MDR1 expression; also recorded: ineffective at inhibiting MDR1 induction by Ara-C
- inhibition of Ara-C induced MDR1 expression (MDR1 [5]; H9 cells, 25 μM Ara-C 10 h, 0.3-3 μM (12 h)): -

Compound: CN(Cc1cnc2nc(N)nc(N)c2n1)c1ccc(C(=O)N[C@@H](CCC(=O)O)C(=O)O)cc1 [methotrexate]
- MDR1 induction, mRNA and protein levels (MDR1 [1]): MDR1 induction, both at the mRNA and at the protein levels, was observed
- MDR1 mRNA expression (MDR1 [1]): MDR1 mRNA expression was induced
- maintenance of MDR1 expression after removal of the drug (MDR1 [1]): least several weeks

Compound: N#CC(C#N)=Cc1cc(O)c(O)c(O)c1 [tyrphostin A25]
- inhibition of Ara-C induced MDR1 expression (MDR1 [5]; H-9 cells, 50-100 μM): strongly inhibit Ara-C induced MDR1 expression; also recorded: inhibit Ara-C induced MDR1 expression

Compound: N#CC(=Cc1ccc(O)c(O)c1)C(=O)NCCCc1ccccc1 [tyrphostin B46]
- inhibition of Ara-C induced MDR1 expression (MDR1 [5]; H-9 cells, 50-100 μM): strongly inhibit Ara-C induced MDR1 expression; also recorded: inhibit Ara-C induced MDR1 expression

Compound: IL-1α
- effect on P-glycoprotein activity (Rh123 accumulation) (P-glycoprotein): No apparent effects on P-glycoprotein

Compound: neomycin sulfate
- inhibition of protein kinase C (PKC): protein kinase C inhibitors
- Inhibition of MRP Expression (MRP; 10 mM): ++++
- inhibition of MRP expression (MRP; 10 mM): strongly inhibited; also recorded: capable of inhibiting MRP expression
- inhibition of Ara-C induced MDR1 expression (MDR1 [5]; H-9 cells, 10 mM): inhibit Ara-C induced MDR1 expression
